Some test systems named below: HCC 2998; HCT-116; HOP-92; Hs-578T; IGROV-1; MDA-MB-231; MDA-N; Malme-3M; NCI-H226; NCI-H460; RPMI-8226; SF-295; SK-OV-3; SN12C; SNB-19; SW-620; T47D; UACC-62; UO-31.
Assay in all cases: growth of human tumour cells (NCI), 48 h

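Interpolation was linear, between the two tested concentrations surrounding the appropriate level; five concentrations were tested over 48 hours in 96-well plates. GI50 marks 50% less growth.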 The source made the active and inactive calls. No stated cut-off is given here; in the data, active = GI50 up to about 1.1 µM and inactive = higher.

As to `C=CC(=O)N1C/C(=C\c2ccc(OC)cc2)C(=O)/C(=C/c2ccc(OC)cc2)C1`, the GI50 in the experiment on HCC 2998 was 1.5 µM (inactive); in the experiment on HCT-116, 0.219 µM (active); with HOP-92, 6.03 µM (inactive); in the experiment on Hs-578T, 3.34 µM (inactive); in the experiment with IGROV-1, 2.35 µM (inactive); in the experiment on MDA-MB-231, 3.07 µM (inactive). For the same compound, the GI50 with MDA-N was 1.62 µM (inactive); in the experiment on Malme-3M, 2.19 µM (inactive); with NCI-H226 it was 2 µM (inactive); in the experiment with NCI-H460 it was 1.9 µM (inactive); in the experiment with RPMI-8226, 0.247 µM (active); in the experiment with SF-295, 2.39 µM (inactive). The GI50 was 3.48 µM (inactive) in the experiment on SK-OV-3; 2.49 µM (inactive) in the experiment with SN12C; 7.18 µM (inactive) in the experiment on SNB-19; 1.46 µM (inactive) in the experiment on SW-620; 6.56 µM (inactive) with T47D; 1.94 µM (inactive) in the experiment with UACC-62. The GI50 in the experiment with UO-31 was 1.77 µM (inactive).
With `O=C(c1ccsc1)c1cc2c(s1)C(=O)c1ccsc1C2=O`, the GI50 with HCC 2998 was 0.537 µM (active); in the experiment with HCT-116, 0.195 µM (active); in the experiment with HOP-92 it was 0.34 µM (active); in the experiment with Hs-578T, 0.209 µM (active); in the experiment on IGROV-1, 0.204 µM (active); with MDA-MB-231 it was 0.0755 µM (active). In addition, the GI50 in the experiment on MDA-N was 0.0237 µM (active); in the experiment on Malme-3M, 0.0202 µM (active); in the experiment on NCI-H226, 0.552 µM (active); in the experiment on NCI-H460 it was 0.184 µM (active); in the experiment with RPMI-8226, 0.136 µM (active); in the experiment with SF-295, 0.174 µM (active). Besides, the GI50 in the experiment with SK-OV-3 was 1.61 µM (inactive); in the experiment with SN12C, 0.0635 µM (active); in the experiment on SNB-19, 0.177 µM (active); in the experiment with SW-620, 0.17 µM (active); with T47D, 0.235 µM (active); in the experiment on UACC-62, 0.194 µM (active). For the same compound, the GI50 in the experiment on UO-31 was 0.0893 µM (active).
For the compound `CCOc1ccc(C2Oc3c(cccc3OC)C=C2[N+](=O)[O-])cc1OCC` (centres undefined), the GI50 in the experiment on HCC 2998 is 20.7 µM (inactive); in the experiment on HCT-116 it was 1.5 µM (inactive); in the experiment with HOP-92 it was 12.6 µM (inactive); in the experiment with Hs-578T, 5.51 µM (inactive); in the experiment on IGROV-1, 4.92 µM (inactive); in the experiment with MDA-MB-231, 2.73 µM (inactive). The GI50 with MDA-N is 2.04 µM (inactive); in the experiment with Malme-3M, 2.3 µM (inactive); in the experiment on NCI-H226 it was 21.9 µM (inactive); in the experiment on NCI-H460, 7.28 µM (inactive); with RPMI-8226 it was 2.27 µM (inactive); with SF-295, 15.3 µM (inactive). In addition, the GI50 is 27.5 µM (inactive) with SK-OV-3; 10.8 µM (inactive) in the experiment with SN12C; 15.2 µM (inactive) in the experiment on SNB-19; 2.06 µM (inactive) in the experiment on SW-620; 15.7 µM (inactive) with T47D; 5.32 µM (inactive) in the experiment on UACC-62. In addition, the GI50 with UO-31 is 2.64 µM (inactive).
`CCOC(=O)C1C(=O)CC1(C)C` (centres undefined): the GI50 with HCC 2998, in the experiment with HCT-116, in the experiment with HOP-92, in the experiment with Hs-578T, in the experiment on IGROV-1 and in the experiment on MDA-MB-231 was > 10 µM (inactive) throughout. Also, the GI50 with MDA-N, in the experiment with Malme-3M, in the experiment with NCI-H226, in the experiment on NCI-H460, with RPMI-8226 and with SF-295 was > 10 µM (inactive) each time. Further, the GI50 in the experiment with SK-OV-3, with SN12C, with SNB-19, with SW-620, in the experiment on T47D and in the experiment with UACC-62 was > 10 µM (inactive) in each case. Besides, the GI50 with UO-31 is > 10 µM (inactive).
Consider `O=c1oc2ccc([N+](=O)[O-])cc2c(Nc2ccc3c(c2)S(=O)(=O)c2ccccc2O3)c1[N+](=O)[O-]`, for which the GI50 in the experiment on HCC 2998 was 26.5 µM (inactive); in the experiment on HCT-116 it was 73.5 µM (inactive); in the experiment with HOP-92, 51.2 µM (inactive); with Hs-578T, 72.1 µM (inactive); in the experiment on IGROV-1, > 100 µM (inactive); with MDA-MB-231, 49.7 µM (inactive). The GI50 was 68.1 µM (inactive) in the experiment on MDA-N; > 100 µM (inactive) in the experiment with Malme-3M; 35.9 µM (inactive) with NCI-H226; 98.4 µM (inactive) with NCI-H460; 39 µM (inactive) in the experiment with RPMI-8226; 60.4 µM (inactive) with SF-295. Further, the GI50 in the experiment with SK-OV-3 is > 100 µM (inactive); in the experiment on SN12C, 80.2 µM (inactive); in the experiment on SNB-19, 77.1 µM (inactive); in the experiment on SW-620, 97.7 µM (inactive); with T47D, > 100 µM (inactive); in the experiment with UACC-62 it was 43.8 µM (inactive). Further, the GI50 in the experiment with UO-31 is 53.3 µM (inactive).
For the compound `CC1(/C=C/CCSc2ccccc2)CC(=O)C2CC1C2(C)C` (centres undefined), the GI50 is 12.5 µM (inactive) in the experiment with HCC 2998; 13 µM (inactive) in the experiment on HCT-116; 17.9 µM (inactive) in the experiment on HOP-92; 22.9 µM (inactive) with Hs-578T; 17.8 µM (inactive) in the experiment on IGROV-1; 37.4 µM (inactive) in the experiment on MDA-MB-231. Further, the GI50 in the experiment on MDA-N was 26.9 µM (inactive); with Malme-3M, 21.3 µM (inactive); with NCI-H226 it was 24.8 µM (inactive); in the experiment with NCI-H460, 17.3 µM (inactive); in the experiment on RPMI-8226 it was 3.79 µM (inactive); in the experiment on SF-295, 21 µM (inactive). Moreover, the GI50 with SK-OV-3 was > 72.4 µM (inactive); in the experiment on SN12C, 19.1 µM (inactive); in the experiment on SNB-19, 35.8 µM (inactive); in the experiment on SW-620, 32.5 µM (inactive); in the experiment on T47D, 11.2 µM (inactive); in the experiment with UACC-62, 8.04 µM (inactive). In addition, the GI50 in the experiment on UO-31 was 5.61 µM (inactive).
As to `CC1(C)C2CCC(O)(C2)C1N` (centres undefined), the GI50 in the experiment with HCC 2998, with HCT-116, in the experiment on HOP-92, in the experiment with Hs-578T, in the experiment on IGROV-1 and in the experiment with MDA-MB-231 was > 100 µM (inactive) each time. Further, the GI50 in the experiment on MDA-N, with Malme-3M, in the experiment on NCI-H226, in the experiment with NCI-H460, in the experiment on RPMI-8226 and with SF-295 was > 100 µM (inactive) each time. In addition, the GI50 in the experiment on SK-OV-3, with SN12C, in the experiment with SNB-19, in the experiment on SW-620, in the experiment on T47D and in the experiment with UACC-62 was > 100 µM (inactive) each time. Further, in the experiment on UO-31, the GI50 was > 100 µM (inactive).
On to `CC1C(=O)OCC2=CCN3CCC(OC(=O)C(C)C1(C)O)C23` (centres undefined), for which the GI50 with HCC 2998, with HCT-116, in the experiment on HOP-92, in the experiment with Hs-578T, in the experiment on IGROV-1 and in the experiment on MDA-MB-231 was > 100 µM (inactive) each time. Besides, the GI50 with MDA-N, in the experiment on Malme-3M, in the experiment on NCI-H226, in the experiment on NCI-H460, in the experiment with RPMI-8226 and in the experiment with SF-295 was > 100 µM (inactive) throughout. Also, the GI50 with SK-OV-3, in the experiment on SN12C, in the experiment with SNB-19, in the experiment with SW-620, with T47D and in the experiment on UACC-62 was > 100 µM (inactive) throughout. Also, the GI50 with UO-31 was > 100 µM (inactive).
As for `Clc1ccc(Oc2ccc(/N=C/c3ccc(Cl)cc3Cl)cc2Cl)cc1`, the GI50 in the experiment on HCC 2998 is > 100 µM (inactive); with HCT-116, 33 µM (inactive); in the experiment with HOP-92 it was 34.2 µM (inactive); in the experiment with Hs-578T, 25.9 µM (inactive); in the experiment with IGROV-1 it was 44.8 µM (inactive); in the experiment with MDA-MB-231, 51.3 µM (inactive). Besides, the GI50 was 14.8 µM (inactive) in the experiment on MDA-N; 27.3 µM (inactive) with Malme-3M; > 100 µM (inactive) with NCI-H226; 63.7 µM (inactive) in the experiment on NCI-H460; 9.2 µM (inactive) in the experiment on RPMI-8226; 39.5 µM (inactive) in the experiment on SF-295. Also, the GI50 is 73.3 µM (inactive) in the experiment with SK-OV-3; 48.3 µM (inactive) in the experiment on SN12C; 41.6 µM (inactive) with SNB-19; 33 µM (inactive) in the experiment with SW-620; 43.6 µM (inactive) in the experiment with T47D; 37.7 µM (inactive) with UACC-62. Further, in the experiment with UO-31, the GI50 is 21.6 µM (inactive).
On to `COc1cccc(/C(CC(O)(C(F)(F)F)C(F)(F)F)=N\N(C)C)c1`, for which the GI50 with HCC 2998, in the experiment with HCT-116, in the experiment with HOP-92, with Hs-578T, with IGROV-1 and in the experiment with MDA-MB-231 was > 100 µM (inactive) in each case. For the same compound, the GI50 in the experiment with MDA-N, in the experiment on Malme-3M, in the experiment with NCI-H226, with NCI-H460, with RPMI-8226 and in the experiment on SF-295 was > 100 µM (inactive) in each case. Further, the GI50 in the experiment on SK-OV-3, in the experiment on SN12C, in the experiment with SNB-19, in the experiment with SW-620, in the experiment on T47D and in the experiment with UACC-62 was > 100 µM (inactive) in each case. Moreover, the GI50 in the experiment with UO-31 was > 100 µM (inactive).
Regarding `O=C(CBr)NCCc1c[nH]c2ccccc12`, the GI50 in the experiment with HCC 2998 is 9.95 µM (inactive); in the experiment on HCT-116, 1.65 µM (inactive); in the experiment on HOP-92, 2.29 µM (inactive); in the experiment on Hs-578T it was 5.14 µM (inactive); in the experiment on IGROV-1, 1.83 µM (inactive); in the experiment with MDA-MB-231 it was 2.23 µM (inactive). Also, the GI50 with MDA-N was 2.02 µM (inactive); in the experiment on Malme-3M, 2.94 µM (inactive); with NCI-H226, 0.655 µM (active); in the experiment with NCI-H460, 6.44 µM (inactive); in the experiment on RPMI-8226 it was 1.97 µM (inactive); with SF-295 it was 13.7 µM (inactive). Besides, the GI50 is 2.67 µM (inactive) in the experiment with SK-OV-3; 1.45 µM (inactive) in the experiment with SN12C; 6.17 µM (inactive) in the experiment on SNB-19; 2.03 µM (inactive) with SW-620; 1.74 µM (inactive) in the experiment with T47D; 1.75 µM (inactive) in the experiment on UACC-62. The GI50 in the experiment with UO-31 is 1.72 µM (inactive).

The record behind these values is ChEMBL document CHEMBL1201862, “PubChem BioAssay data set” (2004).
